Experimental data as given in ChEMBL document CHEMBL1201862, “PubChem BioAssay data set” (2004).
Calls of active or inactive are those of the source.

Columns and labels:
[1] = viability of HCT116 lacking mutant beta-catenin – cell-based, human colon tumor, dose response (AID 1045); format: functional;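 also: HCT116 colon tumor cells with beta catenin knocked out; cells exposed to compound for 60 hours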
[2] = viability of PTEN-deleted HCT116 cells – cell-based, HCT116 PTEN knockout, dose response (AID 1047); format: functional;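 also: HCT116 colon tumor cells with PTEN knocked out; cells exposed to compound for 60 hours before readout; potency for loss of cell viability measured by luminescence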
[3] = target: T1, Corticotropin-releasing factor receptor 2/Corticotropin-releasing factor-binding protein (Homo sapiens, UniProt P24387+Q13324); test: activators of CRF receptor 2 with binding protein – uHTS hits, confirmation (AID 602473); format: functional; conditions: read-out: EC50_Mean
T1 sequence (Q13324 whole entry): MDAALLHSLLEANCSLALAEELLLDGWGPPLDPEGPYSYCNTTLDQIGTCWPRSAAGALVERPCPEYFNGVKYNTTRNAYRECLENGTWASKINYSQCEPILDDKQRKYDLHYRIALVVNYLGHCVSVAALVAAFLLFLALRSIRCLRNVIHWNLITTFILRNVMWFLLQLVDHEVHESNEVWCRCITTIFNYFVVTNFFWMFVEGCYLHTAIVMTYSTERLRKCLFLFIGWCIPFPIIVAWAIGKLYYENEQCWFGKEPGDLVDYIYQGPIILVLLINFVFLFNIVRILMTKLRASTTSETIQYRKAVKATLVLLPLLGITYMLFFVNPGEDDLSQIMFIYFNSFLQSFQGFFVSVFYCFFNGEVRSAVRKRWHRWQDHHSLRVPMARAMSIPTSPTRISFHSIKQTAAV
T1 sequence (P24387 whole entry): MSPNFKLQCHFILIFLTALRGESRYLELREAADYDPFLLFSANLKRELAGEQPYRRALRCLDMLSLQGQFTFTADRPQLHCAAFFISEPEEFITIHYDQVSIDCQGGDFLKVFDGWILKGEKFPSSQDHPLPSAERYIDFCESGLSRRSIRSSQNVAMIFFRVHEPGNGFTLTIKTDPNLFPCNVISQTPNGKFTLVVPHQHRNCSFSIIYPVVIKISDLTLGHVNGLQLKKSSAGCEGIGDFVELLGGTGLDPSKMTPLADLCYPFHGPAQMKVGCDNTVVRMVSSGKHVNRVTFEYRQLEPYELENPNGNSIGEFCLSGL

[4] = target: T1, Corticotropin-releasing factor receptor 2/Corticotropin-releasing factor-binding protein; test: Dose Response confirmation of uHTS hits for small molecule antagonists of the CRF-binding protein and CRF-R2 receptor complex.; format: functional; conditions: read-out: IC50_Mean
[5] = target: Luciferin 4-monooxygenase (Photinus pyralis, UniProt P08659); test: inhibition of purified Photinus pyralis luciferase – biochemical, luminescence, dose response (AID 1891)
Sequence of Luciferin 4-monooxygenase (P08659 whole entry): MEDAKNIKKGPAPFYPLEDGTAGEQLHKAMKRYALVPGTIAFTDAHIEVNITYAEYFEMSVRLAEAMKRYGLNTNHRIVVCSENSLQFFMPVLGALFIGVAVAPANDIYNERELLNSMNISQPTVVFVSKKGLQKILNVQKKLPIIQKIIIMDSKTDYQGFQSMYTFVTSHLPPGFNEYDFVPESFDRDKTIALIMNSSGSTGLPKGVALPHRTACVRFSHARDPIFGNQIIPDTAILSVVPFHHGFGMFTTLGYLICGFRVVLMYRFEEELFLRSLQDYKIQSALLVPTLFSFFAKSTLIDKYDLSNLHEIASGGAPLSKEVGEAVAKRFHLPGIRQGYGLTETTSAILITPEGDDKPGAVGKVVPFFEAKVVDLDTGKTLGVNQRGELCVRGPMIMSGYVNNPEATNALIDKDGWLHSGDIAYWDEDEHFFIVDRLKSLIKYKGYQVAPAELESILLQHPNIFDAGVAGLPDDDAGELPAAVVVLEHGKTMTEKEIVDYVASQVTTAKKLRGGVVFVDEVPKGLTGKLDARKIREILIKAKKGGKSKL

[6] = Luminescence Cell-Based Dose Confirmation HTS to Identify Inhibitors of Platelet Dense Granule Release. [Related pubchem assays: 1663 (Primary HTS), 1678 (Summary of Project)]; format: functional
Cytochrome P450 2C19 = Cytochrome P450 2C19 (Homo sapiens, UniProt P33261); test: Cytochrome panel assay with activity outcomes. Panel member name: p450-cyp2c19 Compounds with AC50 equal or less than 10 uM are considered active; format: functional; conditions: read-out: AC50
Sequence of Cytochrome P450 2C19 (P33261 whole entry): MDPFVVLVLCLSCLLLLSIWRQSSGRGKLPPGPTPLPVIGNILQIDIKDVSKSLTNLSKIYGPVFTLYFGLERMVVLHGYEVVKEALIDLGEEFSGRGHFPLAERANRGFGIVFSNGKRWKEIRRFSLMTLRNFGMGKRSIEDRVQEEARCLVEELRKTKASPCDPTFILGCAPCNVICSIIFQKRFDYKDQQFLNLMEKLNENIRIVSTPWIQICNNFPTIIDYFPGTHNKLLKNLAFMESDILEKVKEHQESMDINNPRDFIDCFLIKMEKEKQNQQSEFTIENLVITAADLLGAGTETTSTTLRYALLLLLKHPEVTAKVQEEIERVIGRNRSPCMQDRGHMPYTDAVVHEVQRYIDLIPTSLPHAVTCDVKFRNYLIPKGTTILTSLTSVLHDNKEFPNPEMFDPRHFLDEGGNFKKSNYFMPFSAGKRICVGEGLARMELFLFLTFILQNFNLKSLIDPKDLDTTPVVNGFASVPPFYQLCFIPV

Cytochrome P450 3A4 = Cytochrome P450 3A4 (Homo sapiens, UniProt P08684);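 also: CYP3A4 tested as one member of a cytochrome P450 panel screen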
Sequence of Cytochrome P450 3A4 (P08684 whole entry): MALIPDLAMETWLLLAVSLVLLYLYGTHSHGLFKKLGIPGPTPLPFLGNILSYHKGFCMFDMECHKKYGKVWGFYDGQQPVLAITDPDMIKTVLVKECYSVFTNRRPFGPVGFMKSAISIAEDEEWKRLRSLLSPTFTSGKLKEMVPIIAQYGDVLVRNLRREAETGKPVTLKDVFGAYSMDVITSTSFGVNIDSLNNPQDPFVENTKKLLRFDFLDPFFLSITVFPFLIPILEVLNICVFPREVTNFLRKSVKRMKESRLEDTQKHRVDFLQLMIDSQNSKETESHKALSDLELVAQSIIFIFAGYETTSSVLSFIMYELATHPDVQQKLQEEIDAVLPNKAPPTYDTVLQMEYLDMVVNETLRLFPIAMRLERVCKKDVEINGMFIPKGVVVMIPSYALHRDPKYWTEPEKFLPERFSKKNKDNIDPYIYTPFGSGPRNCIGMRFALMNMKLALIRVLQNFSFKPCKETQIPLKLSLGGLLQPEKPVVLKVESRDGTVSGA

[7] = target: FAD-linked sulfhydryl oxidase ALR (Homo sapiens, UniProt P55789); test: ALR-catalysed DTT oxidation blockers – biochemical, H2O2 detection, luminescence, cherry-pick, dose response (AID 493248)
Sequence of FAD-linked sulfhydryl oxidase ALR (P55789 whole entry): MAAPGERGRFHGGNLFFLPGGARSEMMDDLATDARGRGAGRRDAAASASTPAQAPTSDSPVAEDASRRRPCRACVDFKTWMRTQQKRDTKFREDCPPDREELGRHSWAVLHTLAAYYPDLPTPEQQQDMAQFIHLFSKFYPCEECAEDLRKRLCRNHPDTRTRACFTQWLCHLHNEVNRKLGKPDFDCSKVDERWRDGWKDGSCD

Cytochrome P450 2C9 = Cytochrome P450 2C9 (Homo sapiens, UniProt P11712)
Sequence of Cytochrome P450 2C9 (P11712 whole entry): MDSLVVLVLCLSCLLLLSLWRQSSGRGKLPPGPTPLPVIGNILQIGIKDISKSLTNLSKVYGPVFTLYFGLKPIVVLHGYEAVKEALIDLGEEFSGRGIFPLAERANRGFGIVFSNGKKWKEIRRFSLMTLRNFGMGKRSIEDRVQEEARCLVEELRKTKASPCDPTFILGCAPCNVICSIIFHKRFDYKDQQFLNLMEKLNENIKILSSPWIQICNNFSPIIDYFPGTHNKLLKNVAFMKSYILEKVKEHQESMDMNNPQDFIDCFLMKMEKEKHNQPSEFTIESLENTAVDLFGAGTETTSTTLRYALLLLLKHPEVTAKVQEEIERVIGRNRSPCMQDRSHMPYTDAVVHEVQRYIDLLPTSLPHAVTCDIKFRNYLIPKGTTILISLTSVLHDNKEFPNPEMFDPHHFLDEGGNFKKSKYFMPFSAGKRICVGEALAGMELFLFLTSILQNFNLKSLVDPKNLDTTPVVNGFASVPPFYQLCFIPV

[8] = target: T2, Heat shock factor protein 1 (Mus musculus, UniProt P38532); test: decrease of HSF1-responsive luciferase luminescence – cell-based, NIH3T3, dose retest, confirmation (AID 2382); format: functional;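 also: NIH3T3 fibroblasts with HSF1-driven luciferase reporter stressed by proteasome inhibitor MG132; luminescence from HSF1-driven luciferase expression after 8 hours of MG132 stress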
T2 sequence (P38532 whole entry): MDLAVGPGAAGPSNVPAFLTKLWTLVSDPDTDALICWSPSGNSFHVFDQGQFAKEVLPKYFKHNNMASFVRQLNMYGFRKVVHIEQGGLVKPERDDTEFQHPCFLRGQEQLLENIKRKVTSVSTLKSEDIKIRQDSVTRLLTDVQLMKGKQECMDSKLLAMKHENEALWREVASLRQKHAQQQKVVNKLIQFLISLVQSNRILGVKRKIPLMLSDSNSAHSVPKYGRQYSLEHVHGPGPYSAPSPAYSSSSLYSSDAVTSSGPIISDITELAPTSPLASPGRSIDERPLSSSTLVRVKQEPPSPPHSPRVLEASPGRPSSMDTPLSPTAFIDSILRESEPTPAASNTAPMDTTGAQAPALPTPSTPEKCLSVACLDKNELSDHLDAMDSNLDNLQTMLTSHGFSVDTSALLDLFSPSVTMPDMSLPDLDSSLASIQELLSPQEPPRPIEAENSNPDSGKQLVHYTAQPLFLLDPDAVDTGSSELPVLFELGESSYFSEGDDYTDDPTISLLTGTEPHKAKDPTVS

[9] = NIH-3T3 fibroblast cytotoxicity, dose response, cytotoxicity control, cell-based, fluorescence, Alamar Blue, secondary assay (AID 2327); format: functional;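 also: NIH-3T3 mouse fibroblasts cultured with fluconazole at 8 µg/mL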
[10] = viability of uninfected HEp-2 cells – cell-based, HTS, cytotoxicity control for RSV inhibitor project, dose response (AID 2410); format: functional; conditions: human respiratory syncytial virus
H9c2 = test: cells; format: functional, cell-based; conditions: Rattus norvegicus, H9c2, Myocardium;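 also: confirmatory concentration-response retest of ultra-high-throughput screening hits for modulation of myocardial damage; cell death induced by hydrogen peroxide oxidative stress; compound pretreatment for 60 min then peroxide exposure for 2 h; potency is for protecting the cells against peroxide damage rather than for killing them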
Cytochrome P450 2D6 = Cytochrome P450 2D6 (Homo sapiens, UniProt P10635);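 also: CYP2D6 member of a cytochrome P450 panel assay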
Sequence of Cytochrome P450 2D6 (P10635 whole entry): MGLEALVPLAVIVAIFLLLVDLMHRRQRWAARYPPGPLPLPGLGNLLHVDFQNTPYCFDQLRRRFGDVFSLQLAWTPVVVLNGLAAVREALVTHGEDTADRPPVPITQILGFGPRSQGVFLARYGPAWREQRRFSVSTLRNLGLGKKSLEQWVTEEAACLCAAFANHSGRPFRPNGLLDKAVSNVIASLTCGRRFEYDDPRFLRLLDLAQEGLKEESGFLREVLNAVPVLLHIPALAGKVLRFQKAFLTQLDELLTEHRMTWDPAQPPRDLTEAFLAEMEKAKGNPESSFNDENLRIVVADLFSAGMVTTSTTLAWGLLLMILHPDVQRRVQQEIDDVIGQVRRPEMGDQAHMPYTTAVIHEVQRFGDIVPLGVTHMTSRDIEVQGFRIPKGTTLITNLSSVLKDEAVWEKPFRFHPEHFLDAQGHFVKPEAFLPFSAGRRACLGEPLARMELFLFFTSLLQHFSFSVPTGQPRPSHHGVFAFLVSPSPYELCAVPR

SMILES | EC50 [3] | IC50 [4] | EC50 [5] | EC50 [6] | also measured
COc1cccc(C(=O)N/N=C/C(Br)=C/c2ccccc2)c1 | – | – | – | – | EC50 [1]: 6.47 µM (active); EC50 [2]: 6.24 µM (active)
Cc1ccc(-c2nn(C)c(=O)c3ccccc23)cc1CO | > 53 µM (inactive) | > 47.1 µM (inactive) | – | – | –
Cc1nc2cc(N3CCCCC3)c(NC(=O)c3ccncc3)cc2c(=O)n1Cc1ccc(Cl)cc1 | – | – | – | – | EC50 [1]: 3.8 µM (active); EC50 [2]: 3.49 µM (active)
COc1cccc(N2CCN(Cc3cccc(Cl)c3)CC2)c1 | – | – | > 112 µM (not active) | > 112 µM (not active) | –
C=CCn1c(SCc2ccc(F)cc2)nc2c1c(=O)[nH]c(=O)n2C | > 53 µM (inactive) | > 47.1 µM (inactive) | – | – | –
CCOC(=O)C(C)Oc1cccc2c(=O)n(CC(=O)NCCc3ccc(OC)c(OC)c3)ccc12 (stereo not drawn) | – | – | > 112 µM (not active) | > 112 µM (not active) | –
CCOc1ccc(-c2cc(C(=O)NCC3CCCO3)c3ccccc3n2)cc1 (stereo not drawn) | – | – | 47.2 µM (active) | > 112 µM (not active) | –
Cc1ccccc1CNC(=O)Nc1cccs1 | > 53 µM (inactive) | > 47.1 µM (inactive) | – | – | –
CC(=O)NC(C)C(c1cccs1)N1CCN(c2ccccc2)CC1 (stereo not drawn) | – | – | – | – | AC50 (Cytochrome P450 2C19): 3.98 µM (inconclusive); AC50 (Cytochrome P450 3A4): 39.8 µM (inconclusive); AC50 [7]: 0.273 µM (active); AC50 (Cytochrome P450 2C9): 11.2 µM (inconclusive)
C#CCN1C(=O)C(O)(CC(=O)c2ccc(OC)c(OC)c2)c2ccccc21 (stereo not drawn) | – | – | – | – | EC50 [1]: 21.2 µM (active); EC50 [2]: 18 µM (active)
Cn1c(=O)oc2cc(S(=O)(=O)N3CCN(c4cccc(Cl)c4)CC3)ccc21 | – | – | > 112 µM (not active) | > 112 µM (not active) | –
O=C(Nc1ccccc1N1CCCCC1)C1CCN(C(=O)c2ccc(Cl)cc2)CC1 | > 53 µM (inactive) | > 47.1 µM (inactive) | – | – | EC50 [8]: > 195 µM (not active)
COc1ccc(-c2cc(C(F)(F)F)c(C#N)c(SCC(=O)Nc3nc(C)co3)n2)cc1 | – | – | – | – | EC50 [1]: 9.24 µM (active); EC50 [2]: 10.9 µM (active)
CCOC(=O)c1c(Nc2ccc(Cl)cc2)sc(/C=C2\C=Nc3ccccc32)c1O | – | – | – | – | EC50 [1]: 6.74 µM (active); EC50 [2]: 6.61 µM (active)
CC(=O)C1=C(C)N=C(S)NC1c1cc([N+](=O)[O-])ccc1O (stereo not drawn) | > 53 µM (inactive) | > 47.1 µM (inactive) | – | – | –
CN(Cc1cnccn1)C(=O)CC1C(=O)NCCN1Cc1cccc(Oc2ccccc2)c1 (stereo not drawn) | – | – | > 112 µM (not active) | > 112 µM (not active) | –
COc1cccc(-c2nn(-c3ccccc3)cc2C(=O)O)c1 | – | – | > 112 µM (not active) | > 112 µM (not active) | –
CCOC(=O)c1c(C)c(-c2ccccc2)n(CC(=O)N2CCCC2)c1C | – | – | > 112 µM (not active) | > 112 µM (not active) | –
Cc1cc(F)ccc1NC(=O)c1cc(S(=O)(=O)N2CCCC2)cn1C | – | – | > 112 µM (not active) | > 112 µM (not active) | –
Cc1noc(C)c1S(=O)(=O)N1CCC(C(=O)N2CCN(c3ccc(F)cc3)CC2)CC1 | > 53 µM (inactive) | > 47.1 µM (inactive) | – | – | –
Cc1ccc(C(=O)N2CCN(c3ccc([N+](=O)[O-])c(NCc4ccco4)c3)CC2)cc1 | – | – | 41.3 µM (active) | > 112 µM (not active) | –
COc1cc2c(cc1OC)-c1cc(NC3CC3)nc(=O)n1CC2 | – | – | > 112 µM (not active) | 17.6 µM (active) | –
CC(C)c1nnc(NC(=O)CCC(=O)N2CCN(c3ccc(F)cc3)CC2)s1 | – | – | > 112 µM (not active) | > 112 µM (not active) | –

SMILES | EC50 [3] | IC50 [4] | EC50 [5] | EC50 [6] | also measured
CCCCn1c(SCN2C(=O)c3ccccc3C2=O)nc2cc(S(N)(=O)=O)ccc21 | – | – | > 112 µM (not active) | > 112 µM (not active) | –
CCN(CC)C(=O)CSc1ncnc2c(-c3ccc(OC)cc3)nsc12 | – | – | > 112 µM (not active) | > 112 µM (not active) | –
COc1cc(/C=C(\C#N)c2nc3ccccc3[nH]2)cc(Br)c1OCc1ccccc1 | – | – | – | – | EC50 [1]: 16.7 µM (active); EC50 [2]: 15.8 µM (active)
O=C(CN1CCN(C(=O)c2ccco2)CC1)Nc1c2c(nc3c1CCC3)CCCC2 | > 53 µM (inactive) | > 47.1 µM (inactive) | – | – | –
O=C(COc1ccccc1F)N1CCN(CCN2C(=O)c3cccc4cccc(c34)C2=O)CC1 | > 53 µM (inactive) | > 47.1 µM (inactive) | – | – | –
CCCN(CCC)S(=O)(=O)c1ccc(C(=O)Nc2nnc(CSC)o2)cc1 | – | – | – | – | EC50 [1]: 12.7 µM (active); EC50 [2]: 14.2 µM (active)
Cc1nnc(SCC(=O)N(C)c2c(N)n(Cc3ccccc3)c(=O)[nH]c2=O)n1Cc1ccccc1 | > 53 µM (inactive) | > 47.1 µM (inactive) | – | – | –
COc1ccc(C2=CSC3=NNC4(CCCCC4)NN23)cc1 | – | – | – | – | EC50 [9]: 38.8 µM (active); AC50 [7]: 1.42 µM (active)
CC(=O)c1cccc(Nc2nc3ccccc3n3cnnc23)c1 | > 53 µM (inactive) | < 0.368 µM (active) | – | – | CC50 [10]: 43.9 µM (active); IC50 (H9c2): > 79 µM (inactive)
CC(C)c1ccc(NC(=S)NN2CCOCC2)cc1 | > 53 µM (inactive) | > 47.1 µM (inactive) | – | – | –
COc1ccc(C(=O)Nc2sc(C)c(C)c2CN2CCOCC2)cc1 | – | – | > 112 µM (not active) | 12.6 µM (active) | –
COc1ccccc1CNC(=O)c1cccc(N(C)C)c1 | – | – | > 112 µM (not active) | > 112 µM (not active) | –
CCCCC1(CCCC)C(=O)N=C(Nc2cccc(C)c2)NC1=O | 3.98 µM (active) | > 47.1 µM (inactive) | – | – | EC50 [1]: 12.2 µM (active); EC50 [2]: 12.1 µM (active); AC50 (Cytochrome P450 2D6): 14.1 µM (inconclusive)
Cc1ccc(CNC(=O)CN(c2ccc(C)cc2)S(=O)(=O)c2c(C)nn(C)c2C)cc1 | > 53 µM (inactive) | > 47.1 µM (inactive) | – | – | –
CCC(C)C(=O)Nc1nnc(SCC(=O)NC(C)(C)C)s1 (stereo not drawn) | > 53 µM (inactive) | > 47.1 µM (inactive) | – | – | –
CCCCc1ccc(C2C3=C(CC(C)(C)CC3=O)N=C3C2=C(O)c2ccccc23)cc1 (stereo not drawn) | – | – | – | – | EC50 [1]: 18.2 µM (active); EC50 [2]: 13.2 µM (active)
CC(=O)N1N=C(C)CC1c1ccc(OCc2ccccc2)cc1 (stereo not drawn) | > 53 µM (inactive) | > 47.1 µM (inactive) | – | – | –
Cc1ccc(-n2nc3ccc(NC(=O)/C=C/c4ccco4)cc3n2)cc1C | – | – | – | – | EC50 [1]: 11.7 µM (active); EC50 [2]: 8.83 µM (active)
COc1ccc(C(C)=O)cc1CSc1nnc2c(Cl)cc(Cl)cn12 | > 53 µM (inactive) | > 47.1 µM (inactive) | – | – | –
Cn1c(=O)oc2cc(S(=O)(=O)NCCC(=O)NCc3ccc(F)cc3)ccc21 | > 53 µM (inactive) | > 47.1 µM (inactive) | – | – | –
Cc1ccc(S(=O)(=O)CCC(=O)Nc2cc(Cl)ccc2-n2cncn2)cc1 | > 53 µM (inactive) | > 47.1 µM (inactive) | – | – | –
COc1cc(CNc2ccc(C)c(C)c2)cc(OC)c1OC | – | – | – | – | AC50 [7]: 9.13 µM (active)
CCN1C(=O)c2cccc3c(S(=O)(=O)Nc4ccc(O)c(C(=O)O)c4)ccc1c23 | – | – | – | – | AC50 [7]: 1.55 µM (active)
